Test results from patent US10988465B2, “CXCR4 inhibitors and uses thereof” (X4 Pharmaceuticals, Inc., priority 2016, dated 2021).
Read-outs that look alike come from different tables or passages of the source.

Columns and labels:
in vitro = conditions: human, Caco-2, pH 7.4
How it was run: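 Bidirectional permeability across Caco-2 monolayers in HBSS (pH 7.4) at a test concentration of 10 μM, incubated 0 and 90 min at 37° C (n=2). Monolayer integrity was assessed by TEER and Lucifer yellow. Papp was derived from LC-MS/MS-measured concentrations.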

[1] = molecular target: T1, CXCR-4 transfected U87 cell line (U87.CXCR4) (Homo sapiens, UniProt P61073); experiment: Intracellular CXCL-12-induced calcium mobilization assay (FLIPR); type: cell-based; conditions: U87.CXCR4 cells; CXCL-12 25-50 ng/mL; compound added 15 min before; read-out: IC50 CXCL-12 Ca^2+ flux U87.CXCR4+
T1 construct: expressed in transfected cells; host or cells: U87 (U87.CXCR4)
How it was run: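 CXCL-12 (25-50 ng/mL) was the stimulus, and the intracellular calcium rise was tracked kinetically by FLIPR at 37 °C. Cells were U87.CXCR4 transfectants pre-loaded 45 min at 37 °C with 4 μM (final) Fluo-2 AM in HEPES-buffered HBSS with 0.2% BSA, pH 7.4.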

[2] = molecular target: T2, Jurkat cells expressing CXCR4 (Homo sapiens, UniProt P61073); experiment: Chemokine (CXCL12-AF647) binding inhibition assay; conditions: CXCL12-AF647 25 ng/mL, read-out: IC50 CXCL-12 binding Jurkat
T2 construct: endogenous in cells; host or cells: Jurkat
How it was run: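 Cells in HBSS, 20 mM HEPES, 0.2% BSA, pH 7.4, preincubated 15 min at room temperature with compound, then 25 ng/mL CXCL12-AF647 for 30 min. After washing and paraformaldehyde fixation, bound ligand read by flow cytometry; percent inhibition calculated from MFI relative to unlabeled and ligand-only controls.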

[3] = Mouse brain uptake assay (MBUA), 3 mg/kg IV, 0-24 h, 4 time points; type: in vivo, male CD1 mice; conditions: for Kp / clearance / half-life / AUC(0-t) / Kp uu: male; for Kp: CD1, mouse, brain/plasma, iv, 3 mg/kg; for clearance / half-life: CD1, plasma, 4 time points; for clearance / half-life / AUC(0-t) / Kp uu / fraction unbound: mouse; for clearance / half-life / AUC(0-t) / Kp uu: 3 mg/kg IV, 0-24 h; for half-life: read-out: t½ (converted); for AUC(0-t) / Kp uu: CD1; for Kp uu: unbound brain/unbound plasma
Method: Example 38: Pharmacokinetics and Brain Penetration Experiment to Determine Brain and Plasma Concentrations of Compounds after IV Administration to Male CD1 Mice
The study design (9 animals) consisted of administrating the drug (IV: 3 mg/kg (5 mL/kg) via tail vein injection) and collecting samples at terminal bleeding for plasma and brain at 0.083, 0.5 and 1 h. The IV dosing solution was prepared in 50 mM citrate buffer (pH 4.0) at 0.6 mg/mL. The blood collection was performed as follows: the animal was restrained manually and approximately 150 μL blood/time point was collected into a dipotassium EDTA tube via retro orbital puncture under anesthesia with isoflurane. The blood sample was put on ice and centrifuged to obtain a plasma sample (2000 g, 5 min under 4° C.) within 15 minutes. The brain collection was performed as follows: a mid-line incision was made in the animal's scalp and the skin was retracted. Using small bone cutters and rongeurs, the skull overlying the brain was removed. The brain was removed using a spatula and the brain rinsed with cold saline. The brain was placed in screw-top tubes, and the tubes were stored at −70° C. until analysis.
An aliquot of 30 μL sample was added to 150 μL MeCN containing 50 ng/mL IS (Dexamethasone). The mixture was vortexed for 5 min and centrifuged at 14,000 rpm for 5 min. An aliquot of 5 μL supernatant was injected for LC-MS/MS analysis.
An aliquot of 30 μL brain homogenate (brain:PBS=1:3, w/v) sample was added to 150 μL IS in MeCN (Dexamethasone, 50 ng/mL). The mixture was vortexed for 5 min and centrifuged at 14,000 rpm for 5 min. An aliquot of 5 μL supernatant was injected for LC-MS/MS analysis.
The sample analysis was performed on LCMS/MS-003 (API4000, triple quadruple) under the following conditions: positive ion, ESI, MRM detection using dexamethasone as internal standard. HPLC conditions: mobile phase A: H2O (0.025% formic acid (FA) with 1 mM NH4OAc); mobile phase B: MeOH (0.025% FA with 1 mM NH4OAc) on Waters X-Bridge C18 (2.1×50 mm, 2.5 μm) column at 60° C.
A similar experiment was performed with 4 time points taken from 0-24 h.

[4] = fraction unbound to brain proteins, read-out: Fu (b) %
[5] = fraction unbound to plasma proteins, read-out: Fu (p) %

T2 sequence (P61073 whole entry): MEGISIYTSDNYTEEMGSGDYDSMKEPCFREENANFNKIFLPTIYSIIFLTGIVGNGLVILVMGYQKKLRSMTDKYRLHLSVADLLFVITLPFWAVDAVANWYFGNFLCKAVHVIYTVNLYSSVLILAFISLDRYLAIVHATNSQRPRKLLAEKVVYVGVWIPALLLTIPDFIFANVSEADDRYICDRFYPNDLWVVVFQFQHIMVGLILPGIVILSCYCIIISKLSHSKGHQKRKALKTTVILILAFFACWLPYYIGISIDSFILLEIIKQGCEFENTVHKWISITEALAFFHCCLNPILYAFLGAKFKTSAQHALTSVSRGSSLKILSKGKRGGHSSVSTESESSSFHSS
T1 sequence (P61073 whole entry): as above

Row | SMILES | Papp A→B at 90 min, 10 μM (in vitro) [×10⁻⁶ cm/s] | Papp B→A at 90 min, 10 μM (in vitro) [×10⁻⁶ cm/s] | efflux ratio at 90 min, 10 μM (in vitro) | IC50 [1] [nM] | IC50 [2] [nM] | Kp [3] | clearance [3] [mL/min/kg] | half-life [3] [min] | AUC(0-t) ([3]; brain, read-out: AUClast (b)) [ng·h/mL] | AUC(0-t) ([3]; plasma, read-out: AUClast (P)) [ng·h/mL] | Kp uu [3] | fraction unbound [3, 4] | fraction unbound [3, 5]
1 | Cc1cccnc1[C@@H]1CCC[C@H](c2nc3cccc(N4CC5CCC(C4)N5C)c3[nH]2)N1C [I-56] | 10 to 30 | 10 to 30 | 0.1 to 10 | 0.01 to 100 | 0.01 to 100 | 1.94 | 32.3 | 184 | 3000 | 1540 | 0.35 | 0.013 | 0.073
2 | COc1ccnc([C@@H]2CCC[C@H](c3nc4cccc(N5CCN(C)CC5)c4[nH]3)N2C)c1C [I-81] | 0.1 to 10 | 0.1 to 10 | 0.1 to 10 | 0.01 to 100 | 0.01 to 100 | 7.96 | 33.3 | 286 | 11700 | 1470 | 1.01 | 0.019 | 0.149
3 | Cc1c(Cl)ccnc1[C@@H]1CCC[C@H](c2nc3cccc(N4CCN(C)CC4)c3[nH]2)N1C [I-82] | 10 to 30 | 10 to 30 | 0.1 to 10 | 0.01 to 100 | 0.01 to 100 | 4.27 | 172 | 16.3 | 1150 | 269 | 0.65 | 0.005 | 0.033
4 | Cc1cccnc1[C@@H]1CCC[C@H](c2nc3cccc(N4CCN5CCCC5C4)c3[nH]2)N1C (stereo partly shown) [I-66] | 10 to 30 | 10 to 30 | 0.1 to 10 | 0.01 to 100 | 0.01 to 100 | 44.5 | 212 | 18.6 | 9320 | 209 | – | – | –
5 | Cc1cccnc1[C@@H]1CCC[C@H](c2nc3cccc(N4C5CCC4CN(C)C5)c3[nH]2)N1 [I-120] | 10 to 30 | 10 to 30 | 0.1 to 10 | 0.01 to 100 | 0.01 to 100 | 1.05 | – | – | 5110 | 4820 | 0.07 | 0.014 | 0.201
6 | Cc1cccnc1[C@@H]1CCC[C@H](c2nc3cccc(N4CCN(C(C)C)CC4)c3[nH]2)N1 [I-128] | 0.1 to 10 | 10 to 30 | 0.1 to 10 | 0.01 to 100 | 0.01 to 100 | 2.5 | – | – | 3940 | 1580 | 0.2 | 0.011 | 0.135
7 | CN1[C@@H](c2nc3cccc(N4CCN5CCCC5C4)c3[nH]2)CCC[C@H]1c1ncccc1Cl (stereo partly shown) [I-96] | – | – | – | 100 to 1000 | 0.01 to 100 | 31.2 | 102 | 13.7 | 15300 | 14800 | 11.3 | 0.012 | 0.033
8 | Cc1cccnc1[C@@H]1CCC[C@H](c2nc3cccc(N4CCN(C)C5(CC5)C4)c3[nH]2)N1C [I-108] | > 30 | 10 to 30 | 0.1 to 10 | 100 to 1000 | 0.01 to 100 | 55.8 | 115 | 15.1 | 22800 | 408 | – | – | –
9 | CN1CCC(n2ccnc2[C@H]2CCC[C@@H](c3ncccc3Cl)N2C)CC1 [I-170] | 10 to 30 | 10 to 30 | 0.1 to 10 | ≥ 1000 | 0.01 to 100 | 7.23 | 56 | 229 | 6410 | 887 | – | – | –
10 | Cc1cccnc1[C@@H]1CCC[C@H](c2nc3ccccc3n2CC2CCCN(C)C2)N1C (stereo partly drawn) [I-13, 2-((2R,6S)-1-methyl-6-(3-methylpyridin-2-yl)piperidin-2-yl)-1-((1-methylpiperidin-3-yl)methyl)-1H-benzo[d]imidazole] | 0.1 to 10 | 10 to 30 | 0.1 to 10 | 0.01 to 100 | 0.01 to 100 | – | – | – | – | – | – | – | –
11 | COCCCn1c([C@H]2CCC[C@@H](c3ncccc3C)N2)nc2ccccc21 [I-158] | 10 to 30 | 10 to 30 | 0.1 to 10 | ≥ 1000 | ≥ 1000 | – | – | – | – | – | – | – | –
12 | Cc1cccnc1[C@@H]1CCC[C@H](c2nc3c(N4CCN(C)CC4)cccc3n2C)N1C [I-36] | 10 to 30 | 10 to 30 | 0.1 to 10 | ≥ 1000 | ≥ 1000 | – | – | – | – | – | – | – | –
13 | Cc1cccnc1[C@@H]1CCC[C@H](c2nc3cccc(N4CCN(C)CC4)c3[nH]2)N1C (single isomer, unassigned) [I-3a] | 0.1 to 10 | 0.1 to 10 | – | 0.01 to 100 | 0.01 to 100 | – | – | – | – | – | – | – | –
14 | CN1CCC(n2ccnc2[C@H]2CCC[C@@H](c3ncccc3Cl)N2)CC1 [I-172] | 10 to 30 | 10 to 30 | 0.1 to 10 | ≥ 1000 | ≥ 1000 | – | – | – | – | – | – | – | –
15 | CN1CC2CCC(C1)N2c1cccc2nc([C@H]3CCC[C@@H](c4ncccc4Cl)N3)[nH]c12 [I-121] | 10 to 30 | 10 to 30 | 0.1 to 10 | 0.01 to 100 | 0.01 to 100 | – | – | – | – | – | – | – | –
